In ChEMBL document CHEMBL1201862, “PubChem BioAssay data set” (2004):
Calls of active or inactive are those of the source.

Key:
[1] = biological target: T1, Alkaline phosphatase, tissue-nonspecific isozyme (Homo sapiens, UniProt P05186); test: TNAP enzyme inhibition by screening hits, dose response, selectivity assay for mouse IAP inhibitor project, biochemical, human TNAP, uHTS hits (AID 488906); format: functional
T1 sequence (P05186 whole entry): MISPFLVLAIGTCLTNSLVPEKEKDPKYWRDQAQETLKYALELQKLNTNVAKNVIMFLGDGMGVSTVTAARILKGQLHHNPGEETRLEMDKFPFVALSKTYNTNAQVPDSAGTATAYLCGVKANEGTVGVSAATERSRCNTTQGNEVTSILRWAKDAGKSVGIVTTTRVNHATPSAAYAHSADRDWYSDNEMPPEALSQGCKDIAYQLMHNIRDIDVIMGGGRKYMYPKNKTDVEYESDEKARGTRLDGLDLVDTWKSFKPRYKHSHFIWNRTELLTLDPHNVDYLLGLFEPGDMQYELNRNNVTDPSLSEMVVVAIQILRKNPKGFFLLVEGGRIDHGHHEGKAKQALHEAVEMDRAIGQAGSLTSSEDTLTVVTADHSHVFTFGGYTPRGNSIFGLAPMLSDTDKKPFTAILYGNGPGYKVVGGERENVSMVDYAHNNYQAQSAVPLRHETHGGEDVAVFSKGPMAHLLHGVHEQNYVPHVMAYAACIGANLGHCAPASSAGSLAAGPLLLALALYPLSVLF

[2] = biological target: Intestinal-type alkaline phosphatase (Mus musculus, UniProt P24822); test: PubChem AID 488785; format: functional
Aminopeptidase N = Aminopeptidase N (Plasmodium falciparum FcB1/Columbia, UniProt O96935); test: malaria alanyl aminopeptidase activity blockers – biochemical, fluorogenic H-Leu-NHMec substrate, 1536-well (AID 1445); set-up: species or system Plasmodium falciparum 3D7, 3D7
[3] = biological target: Bifunctional protein GlmU (Mycobacterium tuberculosis, UniProt P9WMN3); test: Inhibitors of Mycobacterial Glucosamine-1-phosphate acetyl transferase (GlmU). Secondary screen.; set-up: species or system Mycobacterium tuberculosis H37Rv
[4] = biological target: Intestinal-type alkaline phosphatase (Homo sapiens, UniProt P09923); test: inhibition of human intestinal alkaline phosphatase – biochemical, dose response (AID 488876); format: functional
Large T antigen = Large T antigen (Simian virus 40, UniProt P03070); format: functional, Betapolyomavirus macacae;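 also: Confirmatory-stage PubChem screen for compounds that inhibit SV40 T antigen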
[5] = biological target: T2, Calpain-2 catalytic subunit (Sus scrofa, UniProt P43367); test: m-calpain protease blockers, concentration series – biochemical, fluorogenic peptide substrate, dose response (AID 1420); format: functional
T2 sequence (P43367 whole entry): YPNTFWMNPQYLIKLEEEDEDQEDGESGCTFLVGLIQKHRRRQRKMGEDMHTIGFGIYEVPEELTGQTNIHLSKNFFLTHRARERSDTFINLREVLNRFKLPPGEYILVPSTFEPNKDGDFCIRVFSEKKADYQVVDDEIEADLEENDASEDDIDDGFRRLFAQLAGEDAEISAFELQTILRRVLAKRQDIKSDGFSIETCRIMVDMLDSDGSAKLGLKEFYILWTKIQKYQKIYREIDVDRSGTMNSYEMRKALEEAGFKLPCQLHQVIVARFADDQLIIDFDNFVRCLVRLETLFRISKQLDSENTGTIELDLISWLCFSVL

[6] = biological target: Induced myeloid leukemia cell differentiation protein Mcl-1 (Homo sapiens, UniProt Q07820); format: functional
Hexokinase-1 = Hexokinase-1 (Homo sapiens, UniProt P19367); test: HK1 enzyme activation by HKDC1 hits – biochemical, selectivity assay for HKDC1 activator project, dose response (AID 504762); format: functional
Hexokinase HKDC1 = biological target: T3, Hexokinase HKDC1 (Homo sapiens, UniProt Q2TB90); test: activation of HKDC1 glucose phosphorylation – biochemical, W721R variant, dose response (AID 504730); format: functional
T3 sequence (Q2TB90 whole entry): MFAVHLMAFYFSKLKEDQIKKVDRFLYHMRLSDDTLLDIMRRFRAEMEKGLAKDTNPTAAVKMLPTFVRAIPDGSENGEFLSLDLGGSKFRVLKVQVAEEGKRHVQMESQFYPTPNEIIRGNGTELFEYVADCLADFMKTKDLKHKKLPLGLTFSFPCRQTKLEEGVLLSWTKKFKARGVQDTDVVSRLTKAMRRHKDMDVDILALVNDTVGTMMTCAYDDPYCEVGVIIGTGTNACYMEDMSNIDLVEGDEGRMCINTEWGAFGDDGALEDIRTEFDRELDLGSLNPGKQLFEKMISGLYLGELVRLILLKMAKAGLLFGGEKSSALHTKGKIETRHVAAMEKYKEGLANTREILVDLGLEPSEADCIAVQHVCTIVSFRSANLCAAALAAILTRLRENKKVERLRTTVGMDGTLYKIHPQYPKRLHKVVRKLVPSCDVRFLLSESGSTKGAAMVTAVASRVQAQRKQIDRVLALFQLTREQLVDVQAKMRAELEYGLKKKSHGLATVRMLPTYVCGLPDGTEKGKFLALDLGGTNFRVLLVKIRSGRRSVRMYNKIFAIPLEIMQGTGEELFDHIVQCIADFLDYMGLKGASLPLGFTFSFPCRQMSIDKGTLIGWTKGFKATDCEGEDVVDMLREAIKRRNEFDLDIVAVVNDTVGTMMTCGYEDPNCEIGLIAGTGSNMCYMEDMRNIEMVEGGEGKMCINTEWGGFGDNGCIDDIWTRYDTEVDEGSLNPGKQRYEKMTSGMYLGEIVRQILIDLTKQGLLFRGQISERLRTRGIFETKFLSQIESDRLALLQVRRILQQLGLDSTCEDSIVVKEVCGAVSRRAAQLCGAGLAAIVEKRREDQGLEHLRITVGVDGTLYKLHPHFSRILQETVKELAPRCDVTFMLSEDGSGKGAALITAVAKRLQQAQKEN

[7] = biological target: Lysine-specific demethylase 4C (Homo sapiens, UniProt Q9H3R0); test: inhibition of JMJD2C H3K9me3 demethylation – biochemical, DELFIA europium, cherry-picked samples, dose response (AID 488835); format: functional
Bcl-2-related protein A1 = biological target: T4, Bcl-2-related protein A1 (Mus musculus, UniProt Q07440); format: functional;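 also: confirmatory dose–response counterscreen on Bfl-1, used to check hits from a UBC13 polyubiquitin inhibitor campaign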
T4 sequence (Q07440 whole entry): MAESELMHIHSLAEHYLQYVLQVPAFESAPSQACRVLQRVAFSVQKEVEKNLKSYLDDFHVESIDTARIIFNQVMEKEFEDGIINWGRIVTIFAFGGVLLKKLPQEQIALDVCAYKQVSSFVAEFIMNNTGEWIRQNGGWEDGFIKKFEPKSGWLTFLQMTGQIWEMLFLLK

[8] = biological target: T5, Ubiquitin-conjugating enzyme E2 N (Homo sapiens, UniProt P61088); format: functional
T5 sequence (P61088 whole entry): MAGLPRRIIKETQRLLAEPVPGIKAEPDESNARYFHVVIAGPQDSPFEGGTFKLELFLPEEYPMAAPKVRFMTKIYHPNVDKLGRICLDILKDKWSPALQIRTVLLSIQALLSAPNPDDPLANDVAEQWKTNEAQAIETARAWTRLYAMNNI

[9] = biological target: T5, Ubiquitin-conjugating enzyme E2 N; format: functional; remark: listed apart in the source
[10] = Luminescence Cell-Based Dose Response HTS to Identify Activators of Luciferase Translation or Activity in H4-C Neuroglioblastoma Cells. [Related pubchem assays: 1829 (Project Summary), 1814 (Primary HTS)]; format: functional
[11] = Luminescence Cell-Based Dose HTS Response to Identify Inhibitors of 5'UTR Stem-Loop Driven Prion Protein mRNA Translation in H4-C Neuroglioblastoma Cells. [Related pubchem assays (depositor defined):AID1814, AID1827]; format: functional
[12] = Luminescence Cell-Based Dose Response HTS to Identify Inhibitors of Luciferase Translation or Activity in H4-C Neuroglioblastoma Cells. [Related pubchem assays: 1813 (Primary HTS), 1827 (Project Summary)]; format: functional
[13] = Luminescence Cell-Based Dose Confirmation HTS to Identify Inhibitors of 5'UTR Stem-Loop Driven Alpha-Synuclein mRNA Translation in H4 Neuroglioblastoma Cells. [Related pubchem assays: 1827 (Project Summary), 1813 (Primary HTS)]; format: functional
[14] = Luminescence Cell-Based Dose Response HTS to Identify Activators of 5'UTR Stem-Loop Driven Prion Protein mRNA Translation in H4-C Neuroglioblastoma Cells. [Related pubchem assays: 1829 (Project Summary), 1814 (Primary HTS)]; format: functional
[15] = Luminescence Cell-Based Dose Retest to Confirm Activators of 5'UTR Stem-Loop Driven Alpha-Synuclein mRNA Translation in H4 Neuroglioblastoma Cells. [Related pubchem assays (depositor defined):AID1813, AID1829]; format: functional
[16] = biological target: Signal transducer and activator of transcription 3 (Homo sapiens, UniProt P40763); test: STAT3 blockade with qPCR and toxicity readouts – cell-based, STAT1 panel, cytotoxicity, late-stage follow-up, panel member STAT3 Inhibition (AID 2078)
[17] = biological target: Signal transducer and activator of transcription 1-alpha/beta (Homo sapiens, UniProt P42224); test: STAT3 blockade with qPCR and toxicity readouts – cell-based, STAT1 panel, cytotoxicity, late-stage follow-up, panel member STAT1 Inhibition (AID 2078)
Cannabinoid receptor 2 [18] = biological target: T6, Cannabinoid receptor 2 (Homo sapiens, UniProt P34972); test: SAR analysis of antagonists of the Cannabinoid Receptor 2 using an Image-Based Assay - Set 3. [Related pubchem assays (depositor defined):AID2013, AID2026]; format: functional
[19] = biological target: T7, G-protein coupled receptor 35 (Homo sapiens, UniProt Q9HC97); test: SAR analysis of Antagonists of the GPR35 Receptor using an Image-Based Assay - Set 6. [Related pubchem assays (depositor defined):AID2013, AID2026]; format: functional
[20] = biological target: T8, G-protein coupled receptor 55 (Homo sapiens, UniProt Q9Y2T6); test: SAR Analysis of Selective Antagonists of GPR55 using an Image-Based Assay - Set 4. [Related pubchem assays (depositor defined):AID2013, AID2026]; format: functional
Cannabinoid receptor 2 [21] = biological target: T6, Cannabinoid receptor 2; test: SAR analysis of agonists of the Cannabinoid Receptor 2 using an Image-Based Assay - Set 3. [Related pubchem assays (depositor defined):AID2013, AID2026]; format: functional
Cannabinoid receptor 1 [22] = biological target: T9, Cannabinoid receptor 1 (Homo sapiens, UniProt P21554); test: SAR analysis of antagonists of the Cannabinoid Receptor 1 using an Image-Based Assay - Set 4. [Related pubchem assays (depositor defined):AID2013, AID2026]; format: functional
Cannabinoid receptor 1 [23] = biological target: T9, Cannabinoid receptor 1; test: SAR analysis of agonists of the Cannabinoid Receptor 1 using an Image-Based Assay - Set 4. [Related pubchem assays (depositor defined):AID2013, AID2026]; format: functional
[24] = biological target: T7, G-protein coupled receptor 35; test: SAR analysis of Agonists of the GPR35 Receptor using an Image-Based Assay - Set 4. [Related pubchem assays (depositor defined):AID2013, AID2026]; format: functional
[25] = biological target: Kappa-type opioid receptor (Homo sapiens, UniProt P41145); test: SAR analysis of small molecule agonists of the kappa opioid receptor via a luminescent beta-arrestin assay - Set 3. [Related pubchem assays (depositor defined):AID1777, AID1785, AID1786, AID1966, AID2133, AID2136, AID2284, AID2500]; format: functional
[26] = biological target: T8, G-protein coupled receptor 55; test: blockers of GPR55 signalling, imaged – imaging, image-based, counter-screen for GPR35 antagonist project, SAR follow-up (AID 2397); format: functional

T8 sequence (Q9Y2T6 whole entry): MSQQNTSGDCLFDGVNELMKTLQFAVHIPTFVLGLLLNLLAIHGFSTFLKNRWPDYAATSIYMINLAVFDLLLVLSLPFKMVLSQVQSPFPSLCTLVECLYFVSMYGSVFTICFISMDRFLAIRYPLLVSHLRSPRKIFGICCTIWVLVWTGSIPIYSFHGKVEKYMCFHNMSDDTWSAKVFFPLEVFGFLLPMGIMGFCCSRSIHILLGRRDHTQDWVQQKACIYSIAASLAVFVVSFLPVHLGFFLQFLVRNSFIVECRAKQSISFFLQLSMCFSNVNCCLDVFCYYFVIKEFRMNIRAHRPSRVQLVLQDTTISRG
T9 sequence (P21554 whole entry): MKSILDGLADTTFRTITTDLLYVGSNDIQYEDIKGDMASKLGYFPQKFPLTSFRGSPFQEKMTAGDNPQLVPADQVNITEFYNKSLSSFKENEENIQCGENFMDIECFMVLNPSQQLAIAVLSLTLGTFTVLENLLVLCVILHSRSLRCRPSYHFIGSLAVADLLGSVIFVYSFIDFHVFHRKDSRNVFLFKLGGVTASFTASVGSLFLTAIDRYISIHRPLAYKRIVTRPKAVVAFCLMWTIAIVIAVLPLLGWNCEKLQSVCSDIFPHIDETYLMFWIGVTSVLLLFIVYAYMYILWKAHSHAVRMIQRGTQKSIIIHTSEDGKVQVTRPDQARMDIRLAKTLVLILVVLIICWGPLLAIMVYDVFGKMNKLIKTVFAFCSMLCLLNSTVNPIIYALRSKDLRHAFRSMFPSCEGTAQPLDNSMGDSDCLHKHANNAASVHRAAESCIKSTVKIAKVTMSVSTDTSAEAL
T7 sequence (Q9HC97 whole entry): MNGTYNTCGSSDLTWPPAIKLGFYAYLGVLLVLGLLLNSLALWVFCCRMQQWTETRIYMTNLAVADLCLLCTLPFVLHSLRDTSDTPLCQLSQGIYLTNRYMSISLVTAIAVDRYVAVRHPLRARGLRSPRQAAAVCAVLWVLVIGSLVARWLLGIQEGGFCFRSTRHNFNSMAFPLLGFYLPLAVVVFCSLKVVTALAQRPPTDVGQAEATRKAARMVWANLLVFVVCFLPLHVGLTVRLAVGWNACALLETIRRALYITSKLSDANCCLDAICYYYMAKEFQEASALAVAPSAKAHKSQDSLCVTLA
T6 sequence (P34972 whole entry): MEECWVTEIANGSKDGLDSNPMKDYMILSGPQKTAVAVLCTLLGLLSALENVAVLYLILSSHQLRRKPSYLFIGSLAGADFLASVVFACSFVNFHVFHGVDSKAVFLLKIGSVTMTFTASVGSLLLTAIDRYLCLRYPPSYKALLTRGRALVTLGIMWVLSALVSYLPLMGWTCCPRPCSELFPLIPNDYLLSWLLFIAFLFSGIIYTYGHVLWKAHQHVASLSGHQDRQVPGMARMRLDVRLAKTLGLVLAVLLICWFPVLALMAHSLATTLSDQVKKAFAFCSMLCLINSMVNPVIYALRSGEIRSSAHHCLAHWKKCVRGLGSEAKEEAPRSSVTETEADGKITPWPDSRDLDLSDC
Chain of Intestinal-type alkaline phosphatase (Homo sapiens, UniProt P09923) (P09923 whole entry): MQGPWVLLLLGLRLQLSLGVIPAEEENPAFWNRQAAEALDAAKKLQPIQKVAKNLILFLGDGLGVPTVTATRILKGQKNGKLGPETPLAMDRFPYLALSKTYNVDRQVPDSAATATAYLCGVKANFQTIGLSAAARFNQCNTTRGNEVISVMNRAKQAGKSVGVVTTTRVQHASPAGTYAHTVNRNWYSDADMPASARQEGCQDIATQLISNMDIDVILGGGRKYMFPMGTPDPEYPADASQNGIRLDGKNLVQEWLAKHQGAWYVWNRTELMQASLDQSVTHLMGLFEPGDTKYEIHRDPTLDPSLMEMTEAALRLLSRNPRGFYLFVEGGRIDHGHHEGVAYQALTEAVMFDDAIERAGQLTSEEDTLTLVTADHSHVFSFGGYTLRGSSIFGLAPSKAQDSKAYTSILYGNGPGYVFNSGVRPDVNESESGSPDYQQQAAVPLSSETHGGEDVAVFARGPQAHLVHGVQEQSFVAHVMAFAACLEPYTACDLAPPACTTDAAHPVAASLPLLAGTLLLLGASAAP
Chain of Signal transducer and activator of transcription 1-alpha/beta (P42224 whole entry): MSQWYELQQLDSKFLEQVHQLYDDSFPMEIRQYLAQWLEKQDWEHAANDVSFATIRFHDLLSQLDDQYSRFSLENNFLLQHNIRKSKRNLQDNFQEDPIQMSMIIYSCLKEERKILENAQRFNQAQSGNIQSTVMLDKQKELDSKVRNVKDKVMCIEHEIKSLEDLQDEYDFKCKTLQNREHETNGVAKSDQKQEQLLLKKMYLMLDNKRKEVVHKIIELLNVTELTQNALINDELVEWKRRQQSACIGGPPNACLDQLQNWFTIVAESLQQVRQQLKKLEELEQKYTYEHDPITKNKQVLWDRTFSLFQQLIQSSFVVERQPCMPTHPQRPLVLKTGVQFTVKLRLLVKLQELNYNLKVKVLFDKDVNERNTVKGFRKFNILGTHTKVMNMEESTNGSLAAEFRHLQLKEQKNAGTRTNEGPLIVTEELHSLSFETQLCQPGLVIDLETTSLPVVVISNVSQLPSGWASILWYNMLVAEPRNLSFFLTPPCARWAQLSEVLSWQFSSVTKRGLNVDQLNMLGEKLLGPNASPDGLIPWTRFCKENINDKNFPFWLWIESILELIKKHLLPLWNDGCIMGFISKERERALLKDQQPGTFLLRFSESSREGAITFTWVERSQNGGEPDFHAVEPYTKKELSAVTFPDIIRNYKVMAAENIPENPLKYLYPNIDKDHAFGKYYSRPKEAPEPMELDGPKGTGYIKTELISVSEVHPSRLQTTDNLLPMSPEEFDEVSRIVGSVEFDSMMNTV
Chain of Large T antigen (P03070 whole entry): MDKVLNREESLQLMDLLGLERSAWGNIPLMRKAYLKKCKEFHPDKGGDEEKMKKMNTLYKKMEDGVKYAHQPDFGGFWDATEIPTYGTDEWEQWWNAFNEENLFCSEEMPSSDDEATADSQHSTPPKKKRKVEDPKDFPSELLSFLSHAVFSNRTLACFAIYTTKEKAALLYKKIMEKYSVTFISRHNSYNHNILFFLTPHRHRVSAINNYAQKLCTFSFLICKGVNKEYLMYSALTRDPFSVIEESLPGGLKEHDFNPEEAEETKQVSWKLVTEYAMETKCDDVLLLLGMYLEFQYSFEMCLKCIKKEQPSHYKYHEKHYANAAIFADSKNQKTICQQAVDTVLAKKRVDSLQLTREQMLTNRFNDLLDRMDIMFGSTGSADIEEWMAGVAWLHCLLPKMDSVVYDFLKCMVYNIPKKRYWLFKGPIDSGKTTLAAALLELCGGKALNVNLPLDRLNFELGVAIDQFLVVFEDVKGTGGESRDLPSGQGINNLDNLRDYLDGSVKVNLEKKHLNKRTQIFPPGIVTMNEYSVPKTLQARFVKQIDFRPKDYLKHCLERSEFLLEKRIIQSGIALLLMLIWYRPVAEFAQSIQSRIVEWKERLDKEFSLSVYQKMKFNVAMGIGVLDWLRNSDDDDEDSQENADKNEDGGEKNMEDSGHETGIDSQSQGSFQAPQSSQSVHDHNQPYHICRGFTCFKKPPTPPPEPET
Chain of Signal transducer and activator of transcription 3 (P40763 whole entry): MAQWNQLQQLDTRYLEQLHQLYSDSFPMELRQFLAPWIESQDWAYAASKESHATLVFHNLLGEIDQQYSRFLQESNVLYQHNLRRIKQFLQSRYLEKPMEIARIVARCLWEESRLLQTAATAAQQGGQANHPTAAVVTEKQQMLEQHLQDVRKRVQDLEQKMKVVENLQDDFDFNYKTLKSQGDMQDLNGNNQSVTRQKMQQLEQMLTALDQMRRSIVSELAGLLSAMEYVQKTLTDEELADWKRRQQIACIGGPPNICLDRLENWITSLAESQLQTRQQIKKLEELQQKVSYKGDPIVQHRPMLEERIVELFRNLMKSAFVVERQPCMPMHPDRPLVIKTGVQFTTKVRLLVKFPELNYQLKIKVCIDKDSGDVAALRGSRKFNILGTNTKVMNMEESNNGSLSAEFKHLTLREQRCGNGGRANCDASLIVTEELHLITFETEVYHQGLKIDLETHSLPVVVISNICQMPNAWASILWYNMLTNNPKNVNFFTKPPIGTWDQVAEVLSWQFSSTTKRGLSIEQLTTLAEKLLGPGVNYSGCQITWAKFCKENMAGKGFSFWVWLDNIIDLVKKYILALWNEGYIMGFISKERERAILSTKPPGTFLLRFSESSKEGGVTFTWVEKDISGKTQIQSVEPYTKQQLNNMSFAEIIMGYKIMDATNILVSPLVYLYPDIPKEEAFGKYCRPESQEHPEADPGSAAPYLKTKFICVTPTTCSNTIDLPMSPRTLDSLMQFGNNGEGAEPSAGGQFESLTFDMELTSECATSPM
Chain of Bifunctional protein GlmU (P9WMN3 whole entry): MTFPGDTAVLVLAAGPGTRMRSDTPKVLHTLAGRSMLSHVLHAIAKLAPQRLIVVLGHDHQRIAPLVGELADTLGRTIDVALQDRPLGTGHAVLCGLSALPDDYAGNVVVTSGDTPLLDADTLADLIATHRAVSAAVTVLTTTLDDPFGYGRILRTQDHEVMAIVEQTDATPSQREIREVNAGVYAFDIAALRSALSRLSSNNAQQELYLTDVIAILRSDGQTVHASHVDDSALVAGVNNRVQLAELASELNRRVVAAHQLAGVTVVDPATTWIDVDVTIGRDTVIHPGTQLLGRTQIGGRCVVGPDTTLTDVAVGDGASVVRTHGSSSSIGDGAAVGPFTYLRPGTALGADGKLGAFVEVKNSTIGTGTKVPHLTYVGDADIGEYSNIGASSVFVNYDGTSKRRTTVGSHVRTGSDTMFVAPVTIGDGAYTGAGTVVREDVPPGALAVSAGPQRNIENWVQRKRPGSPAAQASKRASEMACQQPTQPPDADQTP

## O=C(NN1C(=O)/C(=C/C=C/c2ccco2)SC1=S)c1ccccc1O
[1]
  IC50: 25.9 µM (active)
[2]
  IC50: 15.8 µM (active)
Aminopeptidase N
  IC50: 73.5 µM (active)
[3]
  IC50: 80.6 µM (active)
[4]
  IC50: 30.7 µM (active)
Large T antigen
  IC50: 18.8 µM (active)
[5]
  IC50: 47.6 µM (not active)
[6]
  IC50: 2.42 µM (active)

## CCc1c(C)c(C#N)c2nc3ccccc3n2c1NC
Hexokinase-1
  EC50: 21.1 µM (inactive)
Hexokinase HKDC1
  EC50: 44.8 µM (inactive)

## CN1C(=O)N(C)C(=O)C2(Cc3ccccc3N3CCCC32)C1=O (stereo unspecified)
[7]
  AC50: 14.2 µM (active)

## CN(C)CCCN(C(=O)c1ccc(S(=O)(=O)N2CCCCCC2)cc1)c1nc2ccc(Br)cc2s1
Bcl-2-related protein A1
  IC50: > 20 µM (inactive)
[8]
  IC50: 10.3 µM (active)
[9]
  IC50: 13.4 µM (active)

## COC(=O)c1c(NC(=O)c2ccc([N+](=O)[O-])o2)sc2c1CCN(C(C)C)C2
[10]
  EC50: 2.12 µM (inconclusive)
[11]
  EC50: 2.94 µM (active)
[12]
  EC50: 1.33 µM (active)
[13]
  EC50: 3.35 µM (active)
[14]
  EC50: 2.23 µM (inconclusive)
[15]
  EC50: 1.88 µM (inconclusive)

## O=C(c1ccc(Cl)cc1)C1CCN(c2ncnc3sccc23)CC1
[16]
  IC50: 837 nM (active)
[17]
  IC50: > 55.7 µM (inactive)

## O=C(Cc1ccc2c(c1)OCO2)N1CCC(n2nc(-c3ccccc3)oc2=O)CC1
Cannabinoid receptor 2 [18]
  IC50: > 32 µM (inactive)
[19]
  IC50: > 32 µM (inactive)
[20]
  IC50: > 32 µM (inactive)
Cannabinoid receptor 2 [21]
  EC50: > 32 µM (inactive)
Cannabinoid receptor 1 [22]
  IC50: 15.8 µM (inactive)
Cannabinoid receptor 1 [23]
  EC50: > 32 µM (inactive)
[24]
  EC50: > 32 µM (inactive)

## Clc1ccccc1Cn1c(SCc2ccccc2)nnc1-c1ccccn1
[25]
  EC50: > 20 µM (inactive)

## Clc1ccc(Cn2ncc3c(N4CCN(c5cccc(Cl)c5)CC4)ncnc32)cc1
[26]
  IC50: > 32 µM (inactive)
